Like-named read-outs stand apart in the source and are kept apart here. Bridge positions count the residues as written; N and C are the ends. Square brackets hold non-standard residues; d marks the D form. Peptide text beside a SMILES is read from it. 1Nal = N[C@@H](Cc1cccc2ccccc12)C(=O)O

Ten molecules from patent US7820623B2 (priority 2006, dated 2010) can be followed below.

Experiment [1] has as its system thapsigargin-induced IFN-g production in human whole blood. It is filed as cell-based.
The subject of experiment [2] is thapsigargin-induced IL-2 production in human whole blood.
Setting [3] is: read-out: Analogue Activity (IC50) WB/IFNg.
Where [4] appears, read: read-out: Analogue Activity (IC50) WB/IL-2.

`CC[C@H](C)[C@@H]1NC(=O)[C@H](CCCCN)NC(=O)[C@@H](NC(=O)[C@H](Cc2cccc3ccccc23)NC(=O)[C@@H](NC(=O)[C@H](CC(N)=O)NC(=O)[C@@H](NC(=O)[C@@H](NC(=O)[C@@H](NC(=O)CN)C(C)C)[C@@H](C)CC)[C@@H](C)CC)C(C)C)CSSC[C@@H]2NC(=O)[C@H](CCCCN)NC(=O)CNC(=O)[C@H](Cc3ccccc3)NC(=O)[C@H](CCCNC(=N)N)NC(=O)[C@H](CCSC)NC(=O)CNC(=O)[C@H](C)NC(=O)[C@H](CCCCN)NC(=O)[C@H](CCCCN)NC(=O)[C@@H]3CSSC[C@@H](C(=O)N[C@H](C(=O)N4CCC[C@H]4C(=O)N[C@@H](CCCCN)C(=O)O)[C@@H](C)O)NC(=O)[C@H](Cc4c[nH]cn4)NC(=O)[C@H](CSSC[C@H](NC(=O)[C@H](CCC(N)=O)NC(=O)[C@H](CCCNC(=N)N)NC(=O)[C@H](CO)NC1=O)C(=O)N[C@@H](CC(C)C)C(=O)N[C@@H](CCC(=O)O)C(=O)N1CCC[C@H]1C(=O)N3)NC(=O)[C@H](CCCCN)NC(=O)CNC(=O)[C@H](CC(N)=O)NC(=O)[C@H](CCSC)NC2=O` [K7Nal] (H-GVIINV[1Nal]CKISRQCLEPCKKAGMRFGKCMNGKCHCTPK-OH; disulfide 8-28, 14-33, 18-35): the IC50 in experiment [1] (setting [3]) stood at 246 pM; in experiment [2] (setting [4]) it was 222 pM.
The corresponding values for `CC[C@H](C)[C@@H]1NC(=O)[C@H](CCCCN)NC(=O)[C@@H](NC(=O)[C@H](CCCCN)NC(=O)[C@@H](NC(=O)[C@H](CC(N)=O)NC(=O)[C@@H](NC(=O)[C@@H](NC(=O)[C@@H](NC(=O)CN)C(C)C)[C@@H](C)CC)[C@@H](C)CC)C(C)C)CSSC[C@@H]2NC(=O)[C@H](CCCCN)NC(=O)CNC(=O)[C@H](Cc3ccccc3)NC(=O)[C@H](CCCNC(=N)N)NC(=O)[C@H](CCSC)NC(=O)CNC(=O)[C@H](C)NC(=O)[C@H](CCCCN)NC(=O)[C@H](CCCCN)NC(=O)[C@@H]3CSSC[C@@H](C(=O)N[C@H](C(=O)N4CCC[C@H]4C(=O)N[C@@H](CCCCN)C(=O)O)[C@@H](C)O)NC(=O)[C@H](Cc4c[nH]cn4)NC(=O)[C@H](CSSC[C@H](NC(=O)[C@H](CCC(N)=O)NC(=O)[C@H](CCCNC(=N)N)NC(=O)[C@H](CO)NC1=O)C(=O)N[C@@H](CC(C)C)C(=O)N[C@@H](CCC(=O)O)C(=O)N[C@@H](CCC(=O)O)C(=O)N3)NC(=O)[C@H](CCCCN)NC(=O)CNC(=O)[C@H](CC(N)=O)NC(=O)[C@H](CCSC)NC2=O` [P17E] (H-GVIINVKCKISRQCLEECKKAGMRFGKCMNGKCHCTPK-OH; disulfide 8-28, 14-33, 18-35) are 947 pM and 520 pM.
As for “E16K, K20D, H34A (GVIINVKCKISRQCLKPCKDAGMRFGKCMNGKCACTPK)”, the figures for the IC50 in experiment [1] (read-out: WB/IFNg (IC50)) and in experiment [2] (read-out: WB/IL-2 (IC50)) were 26600 pM and 65500 pM, respectively.
As to `CC[C@H](C)[C@@H]1NC(=O)[C@H](CCCCN)NC(=O)[C@@H](NC(=O)[C@H](CCCCN)NC(=O)[C@@H](NC(=O)[C@H](CC(N)=O)NC(=O)[C@@H](NC(=O)[C@@H](NC(=O)[C@@H](NC(=O)CN)C(C)C)[C@@H](C)CC)[C@@H](C)CC)C(C)C)CSSC[C@@H]2NC(=O)[C@H](CCCCN)NC(=O)CNC(=O)[C@H](Cc3ccccc3)NC(=O)[C@H](CCCNC(=N)N)NC(=O)[C@H](CCSC)NC(=O)CNC(=O)[C@H](C)NC(=O)[C@H](CCCNC(=N)N)NC(=O)[C@H](CCCCN)NC(=O)[C@@H]3CSSC[C@@H](C(=O)N[C@H](C(=O)N4CCC[C@H]4C(=O)N[C@@H](CCCCN)C(=O)O)[C@@H](C)O)NC(=O)[C@H](Cc4c[nH]cn4)NC(=O)[C@H](CSSC[C@H](NC(=O)[C@H](CCC(N)=O)NC(=O)[C@H](CCCNC(=N)N)NC(=O)[C@H](CO)NC1=O)C(=O)N[C@@H](CC(C)C)C(=O)N[C@@H](CCC(=O)O)C(=O)N1CCC[C@H]1C(=O)N3)NC(=O)[C@H](CCCCN)NC(=O)CNC(=O)[C@H](CC(N)=O)NC(=O)[C@H](CCSC)NC2=O` [K20R] (H-GVIINVKCKISRQCLEPCKRAGMRFGKCMNGKCHCTPK-OH; disulfide 8-28, 14-33, 18-35), the IC50 in experiment [1] (setting [3]) was found to be 83 pM; in experiment [2] (setting [4]) it was 67 pM.
The corresponding values for `CC[C@H](C)[C@@H]1NC(=O)[C@H](CCCCN)NC(=O)[C@@H](NC(=O)[C@H](CCCCN)NC(=O)[C@@H](NC(=O)[C@H](CC(N)=O)NC(=O)[C@@H](NC(=O)[C@@H](NC(=O)[C@@H](NC(=O)CN)C(C)C)[C@@H](C)CC)[C@@H](C)CC)C(C)C)CSSC[C@@H]2NC(=O)[C@H](CCCCN)NC(=O)CNC(=O)[C@H](Cc3ccccc3)NC(=O)[C@H](CCCNC(=N)N)NC(=O)[C@H](CCSC)NC(=O)CNC(=O)[C@H](C)NC(=O)[C@H](C)NC(=O)[C@H](CCCCN)NC(=O)[C@@H]3CSSC[C@@H](C(=O)N[C@H](C(=O)N4CCC[C@H]4C(=O)N[C@@H](CCCCN)C(=O)O)[C@@H](C)O)NC(=O)[C@H](Cc4c[nH]cn4)NC(=O)[C@H](CSSC[C@H](NC(=O)[C@H](CCC(N)=O)NC(=O)[C@H](CCCNC(=N)N)NC(=O)[C@H](CO)NC1=O)C(=O)N[C@@H](CC(C)C)C(=O)N[C@@H](CCC(=O)O)C(=O)N1CCC[C@H]1C(=O)N3)NC(=O)[C@H](CCCCN)NC(=O)CNC(=O)[C@H](CC(N)=O)NC(=O)[C@H](CCSC)NC2=O` [K20A] (H-GVIINVKCKISRQCLEPCKAAGMRFGKCMNGKCHCTPK-OH; disulfide 8-28, 14-33, 18-35) are 379 pM and 379 pM.
In the case of “GVAINVKCKISRQCLEPCKKAGMRFGKCMNGKCHCTPK [Ala-3 (SEQ ID No: 1402)]”, the IC50 in experiment [1] (read-out: Average IC50 IFNg) came out at 99.2 pM; in experiment [2] (read-out: Average IC50 IL-2), 88.3 pM.
For the molecule `CC[C@H](C)[C@@H]1NC(=O)[C@H](CCCCN)NC(=O)[C@@H](NC(=O)[C@H](CCCCN)NC(=O)[C@@H](NC(=O)[C@H](CC(N)=O)NC(=O)[C@@H](NC(=O)[C@@H](NC(=O)[C@@H](NC(=O)CN)C(C)C)[C@@H](C)CC)[C@@H](C)CC)C(C)C)CSSC[C@@H]2NC(=O)[C@H](CCCCN)NC(=O)CNC(=O)[C@H](Cc3ccccc3)NC(=O)[C@H](CCCNC(=N)N)NC(=O)[C@H](CCSC)NC(=O)CNC(=O)[C@H](C)NC(=O)[C@H](CCCCN)NC(=O)[C@H](CCCCN)NC(=O)[C@@H]3CSSC[C@@H](C(=O)N[C@H](C(=O)N4CCC[C@H]4C(=O)N[C@@H](CCCCN)C(=O)O)[C@@H](C)O)NC(=O)[C@H](Cc4c[nH]cn4)NC(=O)[C@H](CSSC[C@H](NC(=O)[C@H](CCC(N)=O)NC(=O)[C@H](CCCNC(=N)N)NC(=O)[C@H](CO)NC1=O)C(=O)N[C@@H](C)C(=O)N[C@@H](CCC(=O)O)C(=O)N1CCC[C@H]1C(=O)N3)NC(=O)[C@H](CCCCN)NC(=O)CNC(=O)[C@H](CC(N)=O)NC(=O)[C@H](CCSC)NC2=O` [L15A] (H-GVIINVKCKISRQCAEPCKKAGMRFGKCMNGKCHCTPK-OH; disulfide 8-28, 14-33, 18-35), the IC50 in experiment [1] (setting [3]) and in experiment [2] (setting [4]) was 108 pM in each case.
For the molecule “GVIINVKCKISRQCLEPCAKAGMRFGKCMNGKCHCTPK [Ala-19 (SEQ ID No: 1415)]”, the IC50 in experiment [1] (read-out: Average IC50 IFNg) and in experiment [2] (read-out: Average IC50 IL-2) was 162 pM in each case.
Regarding `CC[C@H](C)[C@@H]1NC(=O)[C@H](CCCCN)NC(=O)[C@@H](NC(=O)[C@H](CCCCN)NC(=O)[C@@H](NC(=O)[C@H](CC(N)=O)NC(=O)[C@@H](NC(=O)[C@@H](NC(=O)[C@@H](NC(=O)CN)C(C)C)[C@@H](C)CC)[C@@H](C)CC)C(C)C)CSSC[C@@H]2NC(=O)[C@H](CCCCN)NC(=O)CNC(=O)[C@H](Cc3ccccc3)NC(=O)[C@H](CCCNC(=N)N)NC(=O)[C@H](CCSC)NC(=O)CNC(=O)[C@H](C)NC(=O)[C@H](CCCCN)NC(=O)[C@H](CCCCN)NC(=O)[C@@H]3CSSC[C@@H](C(=O)N[C@H](C(=O)N4CCC[C@H]4C(=O)N[C@@H](CCCCN)C(=O)O)[C@@H](C)O)NC(=O)[C@H](Cc4c[nH]cn4)NC(=O)[C@H](CSSC[C@H](NC(=O)[C@H](CCC(N)=O)NC(=O)[C@H](CCCNC(=N)N)NC(=O)[C@H](CO)NC1=O)C(=O)N[C@@H](CC(C)C)C(=O)N[C@@H](CCC(=O)O)C(=O)N[C@@H](Cc1cccc4ccccc14)C(=O)N3)NC(=O)[C@H](CCCCN)NC(=O)CNC(=O)[C@H](CC(N)=O)NC(=O)[C@H](CCSC)NC2=O` [P17Nal] (H-GVIINVKCKISRQCLE[1Nal]CKKAGMRFGKCMNGKCHCTPK-OH; disulfide 8-28, 14-33, 18-35), the results for the IC50 in experiment [1] (setting [3]) and in experiment [2] (setting [4]) were 357 pM and 193 pM, respectively.
Consider `CC[C@H](C)[C@@H]1NC(=O)[C@H](CCCCN)NC(=O)[C@@H](NC(=O)[C@H](CCCCN)NC(=O)[C@@H](NC(=O)[C@H](CC(N)=O)NC(=O)[C@@H](NC(=O)[C@@H](NC(=O)[C@@H](NC(=O)CN)C(C)C)[C@@H](C)CC)[C@@H](C)CC)C(C)C)CSSC[C@@H]2NC(=O)[C@H](CCCCN)NC(=O)CNC(=O)[C@H](Cc3ccccc3)NC(=O)[C@H](CCCNC(=N)N)NC(=O)[C@H](CCSC)NC(=O)CNC(=O)[C@H](C)NC(=O)[C@H](CCCCN)NC(=O)[C@H](CCCCN)NC(=O)[C@@H]3CSSC[C@@H](C(=O)N[C@H](C(=O)N[C@@H](CCCNC(=N)N)C(=O)N[C@@H](CCCCN)C(=O)O)[C@@H](C)O)NC(=O)[C@H](Cc4c[nH]cn4)NC(=O)[C@H](CSSC[C@H](NC(=O)[C@H](CCC(N)=O)NC(=O)[C@H](CCCNC(=N)N)NC(=O)[C@H](CO)NC1=O)C(=O)N[C@@H](CC(C)C)C(=O)N[C@@H](CCC(=O)O)C(=O)N1CCC[C@H]1C(=O)N3)NC(=O)[C@H](CCCCN)NC(=O)CNC(=O)[C@H](CC(N)=O)NC(=O)[C@H](CCSC)NC2=O` [P37R] (H-GVIINVKCKISRQCLEPCKKAGMRFGKCMNGKCHCTRK-OH; disulfide 8-28, 14-33, 18-35), for which the figures for the IC50 in experiment [1] (setting [3]) and in experiment [2] (setting [4]) were 253 pM and 229 pM, respectively.
